In publication PMC10331583, “Control of fibrosis with enhanced safety via asymmetric inhibition of prolyl‐tRNA synthetase 1” (EMBO Molecular Medicine, 2023):
Several values for one entry are separate records, joined by “and”; a condition that tells them apart may be missing. Equal values may be shown once. Read-outs that look alike come from different tables or passages of the source.

Columns and labels:
[1] = system: WI‐26 VA4 cells; test: Puromycin incorporation assay; assay type: cell-based, human; details: log(inhibitor) vs. response, variable slope (four parameters); concentration in nM
Protocol: After being rinsed with cold PBS twice, the cells were collected and resuspended in 200 μl of the carbonate bicarbonate buffer (Sigma Aldrich, C3041‐50CAP) with protease inhibitor. The cell lysates were obtained by sonication and centrifugation at 20,000 g for 15 min at 4°C. After protein quantification using a Pierce™ BCA Protein Assay Kit (Thermo Fisher Scientific, 23225), 400 ng of the proteins was coated to ELISA plates for 18 h at 4°C. […] The plates were rinsed with the washing buffer for three times after each antibody incubation step. […] The amount of puromycin incorporated in proteins was determined by measuring the absorbance at 450 nm (reference wavelength at 620 nm). Experimental values marked in red with strikethrough text in the Figure Source Data file were excluded from the analysis. These values were determined by considering the values of biological and technical replicates under the same condition, as well as the values at the former and later chemical concentrations.

[2] = CellTiter‐Glo assay (cytotoxicity); details: human, WI-26 VA4 cells
[3] = system: WI‐26 VA4 cells; test: CellTiter‐Glo assay (cytotoxicity); details: for activity at 0.003 µM / activity at 0.01 µM / activity at 0.03 µM / activity at 0.1 µM / activity at 0.3 µM / activity at 1 µM / activity at 3 µM / activity at 10 µM / activity at 30 µM / activity at 100 µM: Homo sapiens
[4] = system: WI‐26 VA4 cells; test: Collagen ELISA (secreted pro‐collagen I)
[5] = log(inhibitor) vs. response, variable slope (four parameters), concentration in nM

For `Cc1c(Cl)ccc2c1ncn2CC(=O)C[C@H]1NCCC[C@@H]1O` [DWN11748], the “Puromycin, LogIC50 (best-fit value)” value [1] was 3.428, the CC50 at 72 h [2] was 1440 nM and the activity at 0.003 µM ([3]; WI26VA4, read-out: CellTiter-Glo % of control, 3 nM, Experiment #1, replicates) was 99.9%. The activity at 0.003 µM ([3]; WI26VA4, read-out: CellTiter-Glo % of control, 3 nM, Experiment #2, replicates) was 90.9%, the activity at 0.01 µM ([3]; WI26VA4, read-out: CellTiter-Glo % of control, 10 nM, Experiment #1, replicates) was 90.9% and the activity at 0.01 µM ([3]; WI26VA4, read-out: CellTiter-Glo % of control, 10 nM, Experiment #2, replicates) was 98.9%. The activity at 0.03 µM ([3]; WI26VA4, read-out: CellTiter-Glo % of control, 30 nM, Experiment #1, replicates) was 91.9%, the activity at 0.03 µM ([3]; WI26VA4, read-out: CellTiter-Glo % of control, 30 nM, Experiment #2, replicates) was 83.2% and the activity at 0.1 µM ([3]; WI26VA4, read-out: CellTiter-Glo % of control, 100 nM, Experiment #1, replicates) was 103%. For the same compound, the activity at 0.1 µM ([3]; WI26VA4, read-out: CellTiter-Glo % of control, 100 nM, Experiment #2, replicates) was 86%, the activity at 0.3 µM ([3]; WI26VA4, read-out: CellTiter-Glo % of control, 300 nM, Experiment #1, replicates) was 83.6% and the activity at 0.3 µM ([3]; WI26VA4, read-out: CellTiter-Glo % of control, 300 nM, Experiment #2, replicates) was 68.5%. It also gave an activity at 1 µM ([3]; WI26VA4, read-out: CellTiter-Glo % of control, 1000 nM, Experiment #1, replicates) of 70.6%, an activity at 1 µM ([3]; WI26VA4, read-out: CellTiter-Glo % of control, 1000 nM, Experiment #2, replicates) of 67.6% and an activity at 3 µM ([3]; WI26VA4, read-out: CellTiter-Glo % of control, 3000 nM, Experiment #1, replicates) of 29.5%. It also gave an activity at 3 µM ([3]; WI26VA4, read-out: CellTiter-Glo % of control, 3000 nM, Experiment #2, replicates) of 29.4%, an activity at 10 µM ([3]; WI26VA4, read-out: CellTiter-Glo % of control, 10000 nM, Experiment #1, replicates) of 30.3% and an activity at 10 µM ([3]; WI26VA4, read-out: CellTiter-Glo % of control, 10000 nM, Experiment #2, replicates) of 20.9%. For the same compound, the activity at 30 µM ([3]; WI26VA4, read-out: CellTiter-Glo % of control, 30000 nM, Experiment #1, replicates) was 18.8%, the activity at 30 µM ([3]; WI26VA4, read-out: CellTiter-Glo % of control, 30000 nM, Experiment #2, replicates) was 10.1% and the activity at 100 µM ([3]; WI26VA4, read-out: CellTiter-Glo % of control, 100000 nM, Experiment #1, replicates) was 0.73%. The activity at 100 µM ([3]; WI26VA4, read-out: CellTiter-Glo % of control, 100000 nM, Experiment #2, replicates) was 0.58%, the activity at 0.003 µM ([3]; WI26VA4, read-out: CellTiter-Glo % of control, average, 3 nM, average) was 102% and the activity at 0.01 µM ([3]; WI26VA4, read-out: CellTiter-Glo % of control, average, 10 nM, average) was 96.5%. It also gave an activity at 0.03 µM ([3]; WI26VA4, read-out: CellTiter-Glo % of control, average, 30 nM, average) of 91.9%, an activity at 0.1 µM ([3]; WI26VA4, read-out: CellTiter-Glo % of control, average, 100 nM, average) of 94.6% and an activity at 0.3 µM ([3]; WI26VA4, read-out: CellTiter-Glo % of control, average, 300 nM, average) of 75.5%. It also gave an activity at 1 µM ([3]; WI26VA4, read-out: CellTiter-Glo % of control, average, 1000 nM, average) of 63.5%, an activity at 3 µM ([3]; WI26VA4, read-out: CellTiter-Glo % of control, average, 3000 nM, average) of 27.5% and an activity at 10 µM ([3]; WI26VA4, read-out: CellTiter-Glo % of control, average, 10000 nM, average) of 25.4%. For the same compound, the activity at 30 µM ([3]; WI26VA4, read-out: CellTiter-Glo % of control, average, 30000 nM, average) was 13.7%, the activity at 100 µM ([3]; WI26VA4, read-out: CellTiter-Glo % of control, average, 100000 nM, average) was 0.5% and the “CellTiter-Glo LogIC50 (best-fit value)” value [3, 5] was 3.159. The “Collagen, % of control (single replicates per experiment)” value ([4]; 3 nM, 0.003 µM) was 95.16 % of control and 105.95 % of control and 100.28 % of control and 91.81 % of control and 92.46 % of control and 107.08 % of control and 97.10 % of control and 100.74 % of control and 124.62 % of control and 100.86 % of control, the “Collagen, % of control (single replicates per experiment)” value ([4]; 100 nM, 0.1 µM) was 102.93 % of control and 54.86 % of control and 79.76 % of control and 92.40 % of control and 101.85 % of control and 87.72 % of control and 81.93 % of control and 104.58 % of control and 120.36 % of control and the “CC50/collagen IC50” value ([4]; Fig 5E) was 5.39. The IC50 ([4]; Homo sapiens, WI26VA4, read-out: Collagen IC50 (best-fit value), log(inhibitor) vs. response, variable slope (four parameters) (converted)) was 267 nM, the activity at 0.03 µM ([4]; Homo sapiens, WI26VA4, read-out: Collagen, % of control (single replicates per experiment), 30 nM) was 104% and the activity at 0.3 µM ([4]; Homo sapiens, WI26VA4, read-out: Collagen, % of control (single replicates per experiment), 300 nM) was 46.5%. It also gave an activity at 1 µM ([4]; Homo sapiens, WI26VA4, read-out: Collagen, % of control (single replicates per experiment), 1000 nM) of 7.82%, an activity at 0.003 µM ([4]; Homo sapiens, WI26VA4, read-out: Collagen, % of control, average, 3 nM, average) of 102% and an activity at 0.01 µM ([4]; Homo sapiens, WI26VA4, read-out: Collagen, % of control, average, 10 nM, average) of 100%. For the same compound, the activity at 0.03 µM ([4]; Homo sapiens, WI26VA4, read-out: Collagen, % of control, average, 30 nM, average) was 97.7%, the activity at 0.1 µM ([4]; Homo sapiens, WI26VA4, read-out: Collagen, % of control, average, 100 nM, average) was 88.9% and the activity at 0.3 µM ([4]; Homo sapiens, WI26VA4, read-out: Collagen, % of control, average, 300 nM, average) was 45.3%. The activity at 1 µM ([4]; Homo sapiens, WI26VA4, read-out: Collagen, % of control, average, 1000 nM, average) was 9.08%, the activity at 3 µM ([4]; Homo sapiens, WI26VA4, read-out: Collagen, % of control, average, 3000 nM, average) was 2.58% and the activity at 10 µM ([4]; Homo sapiens, WI26VA4, read-out: Collagen, % of control, average, 10000 nM, average) was 2.33%. For the same compound, the “Collagen HillSlope (best-fit value)” value ([4]; log(inhibitor) vs. response, variable slope (four parameters)) was -2.011, the “Collagen LogIC50 (best-fit value)” value [4, 5] was 2.427 and the “Relative (CC50)/(collagen IC50)” value ([4]; relative to HF, Fig 5E) was 1.61.
